Assay results: patent publication US20230041743A1, “1,8-NAPHTHYRIDIN-2-ONE COMPOUNDS FOR THE TREATMENT OF AUTOIMMUNE DISEASE” (Hoffmann-La Roche Inc., priority 2019, published 2023)

Molecular target: T1, human TLR7 (Homo sapiens, UniProt Q9NYK1)
T1 construct: host or cells: HEK293 (HEK-Blue hTLR7)
T1 sequence (Q9NYK1 27-1049): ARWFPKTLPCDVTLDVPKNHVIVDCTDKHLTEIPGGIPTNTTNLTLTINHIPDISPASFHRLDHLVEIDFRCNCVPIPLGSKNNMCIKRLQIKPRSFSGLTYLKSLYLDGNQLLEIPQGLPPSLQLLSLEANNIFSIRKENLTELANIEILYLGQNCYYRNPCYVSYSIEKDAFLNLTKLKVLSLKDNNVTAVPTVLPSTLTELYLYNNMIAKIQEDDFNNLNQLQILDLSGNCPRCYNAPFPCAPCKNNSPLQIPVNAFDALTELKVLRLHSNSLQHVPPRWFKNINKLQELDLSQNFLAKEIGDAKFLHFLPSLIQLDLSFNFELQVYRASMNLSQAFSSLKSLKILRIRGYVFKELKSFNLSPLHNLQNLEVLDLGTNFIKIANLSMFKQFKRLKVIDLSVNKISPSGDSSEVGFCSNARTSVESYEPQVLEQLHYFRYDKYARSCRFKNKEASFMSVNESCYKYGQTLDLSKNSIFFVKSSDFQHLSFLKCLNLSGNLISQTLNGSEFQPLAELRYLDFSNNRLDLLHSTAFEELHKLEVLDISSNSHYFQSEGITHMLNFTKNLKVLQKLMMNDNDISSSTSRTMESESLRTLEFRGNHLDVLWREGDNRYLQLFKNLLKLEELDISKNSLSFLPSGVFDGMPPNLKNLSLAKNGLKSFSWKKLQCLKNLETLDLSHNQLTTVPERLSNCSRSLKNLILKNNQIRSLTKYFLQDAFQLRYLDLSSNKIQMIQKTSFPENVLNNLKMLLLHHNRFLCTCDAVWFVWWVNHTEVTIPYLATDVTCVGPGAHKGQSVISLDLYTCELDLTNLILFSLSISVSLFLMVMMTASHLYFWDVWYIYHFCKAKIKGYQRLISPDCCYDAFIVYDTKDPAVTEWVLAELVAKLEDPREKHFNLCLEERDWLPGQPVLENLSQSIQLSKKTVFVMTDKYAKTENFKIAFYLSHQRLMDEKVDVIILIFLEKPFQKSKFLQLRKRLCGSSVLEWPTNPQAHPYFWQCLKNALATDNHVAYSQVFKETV
Assay: HEK293-Blue-hTLR-7 cells assay (SEAP reporter, R848 stimulation)
Format: cell-based
Conditions: HEK293-Blue-hTLR7 cells, R848 ligand, 20 hrs incubation; read-out: HEK/hTLR7 IC50
Source text: HEK293-Blue-hTLR-7 Cells Assay:
A stable HEK293-Blue-hTLR-7 cell line was purchased from InvivoGen (Cat. #: hkb-htlr7, San Diego, Calif., USA). These cells were originally designed for studying the stimulation of human TLR7 by monitoring the activation of NF-κB. A SEAP (secreted embryonic alkaline phosphatase) reporter gene was placed under the control of the IFN-β minimal promoter fused to five NF-κB and AP-1-binding sites. The SEAP was induced by activating NF-κB and AP-1 via stimulating HEK-Blue hTLR7 cells with TLR7 ligands. Therefore the reporter expression was declined by TLR7 antagonist under the stimulation of a ligand, such as R848 (Resiquimod), for incubation of 20 hrs. The cell culture supernatant SEAP reporter activity was determined using QUANTI-Blue™ kit (Cat. #: rep-qb1, Invivogen, San Diego, Ca, USA) at a wavelength of 640 nm, a detection medium that turns purple or blue in the presence of alkaline phosphatase.
HEK293-Blue-hTLR7 cells were incubated at a density of 250,000-450,000 cells/mL in a volume of 170 μL in a 96-well plate in Dulbecco's Modified Eagle's medium (DMEM) containing 4.5 g/L glucose, 50 U/mL penicillin, […], […], 2 mM L-glutamine, 10% (v/v) heat-inactivated fetal bovine serum with addition of 20 μL test compound in a serial dilution in the presence of final DMSO at 1% and 10 μL of 20 uM R848 in above DMEM, perform incubation under 37° C. in a CO2 incubator for 20 hrs. Then 20 μL of the supernatant from each well was incubated with 180 μL Quanti-blue substrate solution at 37° C. for 2 hrs and the absorbance was read at 620˜655 nm using a spectrophotometer. The signaling pathway that TLR7 activation leads to downstream NF-κB activation has been widely accepted, and therefore similar reporter assay was modified for evaluating TLR7 antagonist.

SMILES | IC50
COC[C@@H]1CNCCN1c1ccc2c(c1)CN1[C@H](C)CN(c3cc(=O)n(C)c4ncccc34)C[C@H]21 [Example 10, 4-[(4R,10bS)-8-[(2S)-2-(methoxymethyl)piperazin-1-yl]-4-methyl-3,4,6,10b-tetrahydro-1H-pyrazino[2,1-a]isoindol-2-yl]-1-methyl-1,8-naphthyridin-2-one] | 0.0091 µM
C[C@@H]1CN(c2cc(=O)n(C)c3ncccc23)C[C@@H]2c3ccc(N4CC5(CNCCO5)C4)cc3CN12 [Example 3, 4-[(4R,10bS)-4-methyl-8-(5-oxa-2,8-diazaspiro[3.5]nonan-2-yl)-3,4,6,10b-tetrahydro-1H-pyrazino[2,1-a]isoindol-2-yl]-1-methyl-1,8-naphthyridin-2-one] | 0.0211 µM
CO[C@H]1CCN(c2ccc3c(c2)CN2[C@H](C)CN(c4cc(=O)n(C)c5ncccc45)C[C@H]32)C[C@@H]1N [Example 9, 4-[(4R,10bS)-8-[(3S,4S)-3-amino-4-methoxy-1-piperidyl]-4-methyl-3,4,6,10b-tetrahydro-1H-pyrazino[2,1-a]isoindol-2-yl]-1-methyl-1,8-naphthyridin-2-one] | 0.0626 µM
C[C@@H]1CN(c2cc(=O)n(C)c3ncccc23)C[C@@H]2c3ccc(N4CC[C@@](C)(N)C4)cc3CN12 [Example 4, 4-[(4R,10bS)-8-[(3R)-3-amino-3-methyl-pyrrolidin-1-yl]-4-methyl-3,4,6,10b-tetrahydro-1H-pyrazino[2,1-a]isoindol-2-yl]-1-methyl-1,8-naphthyridin-2-one] | 0.0395 µM
C[C@@H]1CN(c2cc(=O)n(C)c3ncccc23)C[C@@H]2c3ccc(N4CC(C)(N)C4)cc3CN12 [Example 1, 4-[(4R,10bS)-8-(3-amino-3-methyl-azetidin-1-yl)-4-methyl-3,4,6,10b-tetrahydro-1H-pyrazino[2,1-a]isoindol-2-yl]-1-methyl-1,8-naphthyridin-2-one] | 0.0304 µM
C[C@@H]1CN(c2cc(=O)n(C)c3ncccc23)C[C@@H]2c3ccc([C@H]4C[C@H]5COC[C@@H](C4)N5)cc3CN12 [Example 28A, 4-[(4R,10bS)-4-methyl-8-(endo-3-oxa-9-azabicyclo[3.3.1]nonan-7-yl)-3,4,6,10b-tetrahydro-1H-pyrazino[2,1-a]isoindol-2-yl]-1-methyl-1,8-naphthyridin-2-one] | 0.0072 µM
C[C@@H]1CN(c2cc(=O)n(C)c3ncccc23)C[C@@H]2c3ccc(N4CC5CCC(C4)N5)cc3CN12 [Example 21, 4-[(4R,10bS)-8-(3,8-diazabicyclo[3.2.1]octan-3-yl)-4-methyl-3,4,6,10b-tetrahydro-1H-pyrazino[2,1-a]isoindol-2-yl]-1-methyl-1,8-naphthyridin-2-one] | 0.0137 µM
CCn1c(=O)cc(N2C[C@@H](C)N3Cc4cc(N5C[C@@H](N)[C@H](OC)C5)ccc4[C@H]3C2)c2cccnc21 [Example 29, 4-[(4R,10bS)-8-[(3R,4R)-3-amino-4-methoxy-pyrrolidin-1-yl]-4-methyl-3,4,6,10b-tetrahydro-1H-pyrazino[2,1-a]isoindol-2-yl]-1-ethyl-1,8-naphthyridin-2-one] | 0.0852 µM
C[C@@H]1CN(c2cc(=O)n(C)c3ncccc23)C[C@@H]2c3ccc(N4C[C@@H](N)[C@@H](F)C4)cc3CN12 [Example 7, 4-[(4R,10bS)-8-[(3R,4S)-3-amino-4-fluoro-pyrrolidin-1-yl]-4-methyl-3,4,6,10b-tetrahydro-1H-pyrazino[2,1-a]isoindol-2-yl]-1-methyl-1,8-naphthyridin-2-one] | 0.0437 µM
C[C@@H]1CN(c2cc(=O)n(C)c3ncccc23)C[C@@H]2c3ccc(N4CCC(C)(N)CC4)cc3CN12 [Example 18, 4-[(4R,10bS)-8-(4-amino-4-methyl-1-piperidyl)-4-methyl-3,4,6,10b-tetrahydro-1H-pyrazino[2,1-a]isoindol-2-yl]-1-methyl-1,8-naphthyridin-2-one] | 0.0098 µM

Other lines, results leading:

IC50 | SMILES
0.007 µM | C[C@@H]1CN(c2cc(=O)n(C)c3ncccc23)C[C@@H]2c3ccc([C@H]4CC[C@H](N5CCOCC5)CC4)cc3CN12 [Example 27A, 4-[(4R,10bS)-4-methyl-8-(trans-4-morpholinocyclohexyl)-3,4,6,10b-tetrahydro-1H-pyrazino[2,1-a]isoindol-2-yl]-1-methyl-1,8-naphthyridin-2-one]
0.0086 µM | C[C@@H]1CN(c2cc(=O)n(C)c3ncccc23)C[C@@H]2c3ccc([C@@H]4C[C@H]5COC[C@@H](C4)N5)cc3CN12 [Example 28B, 4-[(4R,10bS)-4-methyl-8-(exo-3-oxa-9-azabicyclo[3.3.1]nonan-7-yl)-3,4,6,10b-tetrahydro-1H-pyrazino[2,1-a]isoindol-2-yl]-1-methyl-1,8-naphthyridin-2-one]
0.062 µM | C[C@@H]1CN(c2cc(=O)n(C)c3ncccc23)C[C@@H]2c3ccc(N4C[C@H]5NCCO[C@@H]5C4)cc3CN12 [Example 6, 4-[(4R,10bS)-8-[(4aR,7aR)-3,4,4a,5,7,7a-hexahydro-2H-pyrrolo[3,4-b][1,4]oxazin-6-yl]-4-methyl-3,4,6,10b-tetrahydro-1H-pyrazino[2,1-a]isoindol-2-yl]-1-methyl-1,8-naphthyridin-2-one]
0.0156 µM | C[C@@H]1CN(c2cc(=O)n(C)c3ncccc23)C[C@@H]2c3ccc(N4C[C@@H]5C[C@H]4CN5)cc3CN12 [Example 19, 4-[(4R,10bS)-8-[(1S,4S)-2,5-diazabicyclo[2.2.1]heptan-2-yl]-4-methyl-3,4,6,10b-tetrahydro-1H-pyrazino[2,1-a]isoindol-2-yl]-1-methyl-1,8-naphthyridin-2-one]
0.013 µM | C[C@@H]1CN(c2cc(=O)n(C)c3ncccc23)C[C@@H]2c3ccc(N4CCN[C@@H](C)C4)cc3CN12 [Example 13, 4-[(4R,10bS)-4-methyl-8-[(3S)-3-methylpiperazin-1-yl]-3,4,6,10b-tetrahydro-1H-pyrazino[2,1-a]isoindol-2-yl]-1-methyl-1,8-naphthyridin-2-one]
0.0037 µM | C[C@@H]1CN(c2cc(=O)n(C)c3ncccc23)C[C@@H]2c3ccc(C4CCNCC4)cc3CN12 [Example 24, 4-[(4R,10bS)-4-methyl-8-(4-piperidyl)-3,4,6,10b-tetrahydro-1H-pyrazino[2,1-a]isoindol-2-yl]-1-methyl-1,8-naphthyridin-2-one]
0.0083 µM | C[C@@H]1CN(c2cc(=O)n(C)c3ncccc23)C[C@@H]2c3ccc(C4CCNC4)cc3CN12 (stereo partly drawn) [Example 26, 4-[(4R,10bS)-4-methyl-8-pyrrolidin-3-yl-3,4,6,10b-tetrahydro-1H-pyrazino[2,1-a]isoindol-2-yl]-1-methyl-1,8-naphthyridin-2-one]
0.0358 µM | C[C@@H]1CN(c2cc(=O)n(C)c3ncccc23)C[C@@H]2c3ccc(N4CCOC[C@H](N)C4)cc3CN12 [Example 22, 4-[(4R,10bS)-8-[(6R)-6-amino-1,4-oxazepan-4-yl]-4-methyl-3,4,6,10b-tetrahydro-1H-pyrazino[2,1-a]isoindol-2-yl]-1-methyl-1,8-naphthyridin-2-one]
0.0028 µM | C[C@@H]1CNCCN1c1ccc2c(c1)CN1[C@H](C)CN(c3cc(=O)n(C)c4ncccc34)C[C@H]21 [Example 17, 4-[(4R,10bS)-4-methyl-8-[(2R)-2-methylpiperazin-1-yl]-3,4,6,10b-tetrahydro-1H-pyrazino[2,1-a]isoindol-2-yl]-1-methyl-1,8-naphthyridin-2-one]
